For two molecules, IC50 and Kd results are on record in paper PMC5004101, “Broad Spectrum Anti-Influenza Agents by Inhibiting Self-Association of Matrix Protein 1” (Scientific Reports, 2016).

Series [1] has as its target T1, M1 (matrix protein 1), recombinant N1-165 domain of WSN/33 (Influenza A virus (A/Wilson-Smith/1933(H1N1)), UniProt P05777).
T1 construct: gene M
The series can be described thus: bio-layer interferometry, inhibition of M1-M1 self-association. Type of series: binding.

Series [2] shares this target. The series can be described thus: surface plasmon resonance, biotinylated M1 on NeutrAvidin chip. It is filed as binding.
Series [3] deals with the molecule itself. The series can be described thus: SPR; […], room temperature, pH 7.4; […].

Turning to `CCCc1c(OCCCOc2ccc(OCC(=O)O)cc2)ccc(C(C)=O)c1O` [PHE], the IC50 in series [1] is approximately 6000 nM. For the same molecule, the equilibrium dissociation constant (Kd) in series [2] worked out at 870 ± 150 nM.

B1: matrix protein 1 (M1) N-terminal domain, residues 1-165, of influenza A virus H1N1 A/WSN/33 (domain or fragment)
chain: MSLLTEVETYVLSIVPSGPLKAEIAQRLEDVFAGKNTDLEVLMEWLKTRPILSPLTKGILGFVFTLTVPSERGLQRRRFVQNALNGNGDPNNMDKAVKLYRKLKREITFHGAKEIALSYSAGALASCMGLIYNRMGAVTTEVAFGLVCATCEQIADSQHRSHRQM
notes: also called N1-165-domain of WSN/33; biotinylated M1
The molecule B1 came in with a dissociation constant Kd in series [3] of 0.05 ± 0.03 nM.
